Laboratory results from patent publication US20230270893A1, “GALLIUM-LABELED GASTRIN ANALOGUE AND USE IN A METHOD OF IMAGING CCKB-RECEPTOR-POSITIVE TUMORS OR CANCERS” (DEBIOPHARM INTERNATIONAL S.A., priority 2020, published 2023).
Read-outs that look alike come from different tables or passages of the source.

What was measured:
[1] = Ex vivo biodistribution study in naïve adult CD1 mice; conditions: for tissue uptake at 1 h: CD1, mouse, iv, 0.04 ug, total radioactivity; for tissue uptake at 1 h / Retention in stomach: 60 min post-injection
Description: (§1) Ex vivo biodistribution study. Female (FIG. 1A) and male (FIG. 1B) naïve adult CD1 mice (immunocompetent) were injected with [^68Ga]Ga-PPF11N ((0.19±0.04) MBq, 0.04 μg, 1.3 μg/kg). Mice were sacrificed at 5, 15, 30, 60, 120 and 240 min post-injection (N=4 each). A control group of mice of each sex was co-injected with a blocking dose of PPF11N peptide (40 μg, 1.3 mg/kg) and sacrificed at 60 min post-injection. Organs (blood, bone, brain, colon, gonad, kidney, liver, lung, muscle, pancreas, stomach) were weighted and assessed for activity concentration over time. Ex vivo biodistribution in all resected tissues was computed as the percentage of injected dose per gram of tissue (% ID/g).
(§2) Immunocompetent CD1 mice (N=28 males and N=28 females on study, N=3 males and N=3 females spare; males 9 weeks old, females 5 weeks old at delivery) were acclimatized for 7 days, inspected daily and weighed on the day of injection. For each sex, mice were randomly allocated to 7 groups (N=4 mice per group) and each group was injected (bolus i.v. route into a laterial tail vein) with [^68Ga]Ga-PPF11N peptide ((0.19±0.04) MBq in 0.15 mL; (0.039±0.02) μg peptide in non-blocked groups. Following radiolabeling, each product batch was assessed by iTLC and HPLC to ensure the material met the target criteria. For the blocked group, 38±1 μg of peptide was injected. At 5 min, 15 min, 30 min, 1 h, 2 h and 4 h post-injection mice (n=4 per time point for each sex) were sacrificed by cervical dislocation and tissues (blood, bone, brain, colon, gonad, kidney, liver, lung, muscle, pancreas, stomach) were resected, weighed and the radioactivity was counted with a gamma-counter along with calibration standards (dilution series in triplicate). The study design is depicted in the table below.
The activity of each collected tissue was measured in units of counts per min (CPM). Triplicate aliquots of serial dilutions of the radiotracer were also assayed in the gamma counter in order to calculate a conversion factor to units of activity (% ID/g). Measured values were decay corrected and adjusted to account for background radiation

CCK2R [2] = tested on: T1, CCK2R; assay: Peptide blocking experiment (co-injection of blocking dose of PPF11N) in the ex vivo biodistribution study; parameters: species or system CD1 mice; conditions: CD1, stomach, iv, total radioactivity, 60 min post-injection, co-injected PPF11N 40 μg per mouse (1.3 mg/kg), read-out: Concentration in the stomach with peptide blocking dose
T1 construct: from tissue; host or cells: organs of naive CD1 mice (stomach and others), in vivo injection with ex vivo gamma counting
Description: as §1, §2
(§3) The activity of each collected tissue was measured in units of counts per min (CPM). […] Measured values were decay corrected and adjusted to account for background radiation

CCK2R [3] = target: T2, CCK2R (Mus musculus, UniProt P56481); assay: as above; parameters: species or system CD1 mice; conditions: male and female mice, 60 min post-injection, PPF11N 40 μg per mouse
T2 construct: from tissue; host or cells: organs of naive CD1 mice (stomach and others), in vivo injection with ex vivo gamma counting
T2 sequence (P56481 1-453): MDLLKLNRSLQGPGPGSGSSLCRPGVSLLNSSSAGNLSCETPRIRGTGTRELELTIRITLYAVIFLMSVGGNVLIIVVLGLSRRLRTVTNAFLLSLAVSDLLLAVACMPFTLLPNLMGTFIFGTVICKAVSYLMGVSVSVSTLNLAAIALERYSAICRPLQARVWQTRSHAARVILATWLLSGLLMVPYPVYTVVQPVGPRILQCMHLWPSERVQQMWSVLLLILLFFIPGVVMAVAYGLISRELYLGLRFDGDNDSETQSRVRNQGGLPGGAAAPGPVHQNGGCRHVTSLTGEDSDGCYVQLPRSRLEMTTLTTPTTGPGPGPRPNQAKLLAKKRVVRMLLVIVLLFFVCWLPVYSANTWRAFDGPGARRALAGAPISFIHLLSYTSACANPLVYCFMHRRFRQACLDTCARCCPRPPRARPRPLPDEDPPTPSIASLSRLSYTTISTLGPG
Description: as §1, §2, §3

## CCCC[C@H](NC(=O)[C@H](Cc1c[nH]c2ccccc12)NC(=O)CNC(=O)[C@H](Cc1ccc(O)cc1)NC(=O)[C@H](C)NC(=O)[C@@H](CCC(=O)O)NC(=O)[C@@H](CCC(=O)O)NC(=O)[C@@H](CCC(=O)O)NC(=O)[C@@H](CCC(=O)O)NC(=O)[C@@H](CCC(=O)O)NC(=O)[C@@H](CCC(=O)O)NC(=O)CN1CCN(CC(=O)O)CCN(CC(=O)O)CCN(CC(=O)O)CC1)C(=O)N[C@@H](CC(=O)O)C(=O)N[C@@H](Cc1ccccc1)C(N)=O [^68Ga-PPF11N, ^68Ga-Y-DGlu-DGlu-DGlu-DGlu-DGlu-DGlu-Ala-Tyr-Gly-Trp-Nle-Asp-Phe-NH2, metal not drawn]
[1]; blood, female mice, i.v., 0.04 μg peptide, read-out: Blood concentration
  tissue uptake at 1 h: 0.4 ± 0.12 %ID/g
[1]; blood, male mice, i.v., 0.04 μg peptide, read-out: Blood concentration
  tissue uptake at 1 h: 0.46 ± 0.35 %ID/g
[1]; kidney, female mice, read-out: Retention in kidneys
  tissue uptake at 1 h: 2.98 ± 0.53 %ID/g
[1]; kidney, male mice, read-out: Retention in kidneys
  tissue uptake at 1 h: 3.38 ± 0.67 %ID/g
[1]; muscle, female mice, read-out: Activity concentration in muscle
  tissue uptake at 1 h: 0.16 ± 0.09 %ID/g
[1]; muscle, male mice, read-out: Activity concentration in muscle
  tissue uptake at 1 h: 0.1 ± 0.03 %ID/g
[1]; stomach, female mice, read-out: Retention in stomach
  tissue uptake at 1 h: 1.71 ± 0.56 %ID/g
[1]; stomach, male mice, read-out: Retention in stomach
  tissue uptake at 1 h: 1.93 ± 0.18 %ID/g
[1]; female mice
  Retention in stomach: 1.71±0.56 % ID/g
[1]; male and female mice, 5 to 240 min post-injection
  Clearance from organs: rapid clearance from all organs except for kidneys and stomach
[1]; male mice
  Retention in stomach: 1.93±0.18 % ID/g
CCK2R [2]; female mice
  tissue uptake at 1 h: 0.19 ± 0.02 %ID/g
CCK2R [2]; male mice
  tissue uptake at 1 h: 0.32 ± 0.07 %ID/g
CCK2R [3]
  Effect of peptide blocking dose on kidney exposure: unable to reduce kidney exposure
